{
  "source": "patent US9669016B2",
  "about": "“Antiparasitic effect of Bis[3,5-Bis(Benzylidene)-4-Oxo-1-Piperidinyl]amide Derivatives” (priority 2014, dated 2017)",
  "key": {"[1]": {"assay": "Weight and toxicity monitoring in treated infected mice", "format": "in vivo, BALB/c mice", "details": "10^5 infection experiment, daily IP treatment", "description": "(§1) The in vivo experiments were comprised of four groups of five mice each: (1) infected, but not treated [control for the infection—100 μL of DMSO per day, drug diluent]; (2) treated with NC884, NC901 or NC2459, but not infected with the parasites [control for drug toxicity]; (3) infected with the parasites and treated with amphotericin B (8 mg/kg/day) [reference drug; positive control]; and (4) infected with the parasites and treated with NC884, NC901 or NC2459 [experimental group]. Luciferase expressing metacyclic promastigotes L. major (Freidlin V1) were obtained as described previously. Suspensions of 1×10^5 or 1×10^6 parasites per 50 μl of sterile DMEM (endotoxin-free) were injected with a 30G needle into the left hind footpad of BALB/c mice. Two weeks post-infection the compounds were administered once a day by intraperitoneal route, daily for 14 to 17 days. Twice a week, weights were recorded to monitor toxicity and the thickness of the infected footpad and the non-infected footpad was measured with digital calipers to monitor the progression of the disease. The parasitic load also was evaluated through in vivo imaging using luminescence (Kodak Image Station). The mice were injected intra-peritoneally with 150 mg/kg D-luciferin (Sigma, USA) 10 min before imaging, anesthetized with 1-2% isofluorane in oxygen during imaging and the net intensity emitted from the footpad was quantified using the KODAK Image Station software. Parasite burden was expressed as net intensity emitted from L. major infected footpad lesions normalized against the background fluorescence of uninfected mice. The presence/absence of parasites was confirmed by PCR using L. major methionine aminopeptidase (MetAP1) 1 specific primers: 5′-[…]-3′ (SEQ ID NO:1) and 5′-[…]-3′ (SEQ ID NO:2) on cDNA reverse transcribed from total RNA extracted from footpad lysate obtained by macerating footpad tissue fragments in Trizol (Invitrogen Life Technologies, United States) with the gentleMACS™ Dissociator (Miltenyi Biotec GmbH, Germany) following the manufacturer's protocol."}, "[2]": {"system": "L. major metacyclic promastigotes", "assay": "Murine model for cutaneous leishmaniasis (footpad infection)", "format": "in vivo, BALB/c mice", "details": "10^5 L. major metacyclic promastigotes, intraperitoneal daily treatment", "description": "as §1"}},
  "data": [
    {"smiles": "C[C@@H]1[C@H](O)[C@@H](C)/C=C/C=C/C=C/C=C/C=C/C=C/C=C/[C@H](O[C@@H]2O[C@H](C)[C@@H](O)[C@H](N)[C@@H]2O)C[C@@H]2O[C@](O)(C[C@@H](O)C[C@@H](O)[C@H](O)CC[C@@H](O)C[C@@H](O)CC(=O)O[C@H]1C)C[C@H](O)[C@H]2C(=O)O", "note": "[amphotericin B, reference compound]", "values": [
      {"measurement": "weight loss", "setting": "[1]", "result": "much more dramatic loss in weight"},
      {"measurement": "footpad swelling", "setting": "[2]", "result": "reduced footpad swelling"}
    ]}
  ]
}
